PubChem BioAssay (NCI)
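Growth conditions: 96-well plates. Treatment: test compound, 48 hours, 5 concentrations. Analysis: linear interpolation between bracketing concentrations; unreached endpoints set to highest concentration. TGI: total growth inhibition.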

Key:
Assay in all cases: NCI anticancer screen, dose series, 48 h
NCI-H23 lung = test system: NCI-H23 lung
SF-268 CNS = test system: SF-268 CNS
OVCAR-4 ovarian = test system: OVCAR-4 ovarian
NCI-H226 lung = test system: NCI-H226 lung
SK-OV-3 ovarian = test system: SK-OV-3 ovarian
SW-620 colon = test system: SW-620 colon
DMS 273 small cell lung = test system: DMS 273 small cell lung
SNB-75 CNS = test system: SNB-75 CNS
TK-10 renal = test system: TK-10 renal
SNB-78 CNS = test system: SNB-78 CNS
SNB-19 CNS = test system: SNB-19 CNS
CCRF-CEM leukemia = test system: CCRF-CEM leukemia
EKVX NSCLC = test system: EKVX NSCLC
NCI-H522 lung = test system: NCI-H522 lung
COLO 205 colon = test system: COLO 205 colon
UACC-257 melanoma = test system: UACC-257 melanoma
HT29 colon = test system: HT29 colon
LXFL 529 NSCLC = test system: LXFL 529 NSCLC
OVCAR-5 ovarian = test system: OVCAR-5 ovarian
HOP-18 NSCLC = test system: HOP-18 NSCLC
U251 CNS = test system: U251 CNS
RXF 393 renal = test system: RXF 393 renal
RPMI-8226 leukemia = test system: RPMI-8226 leukemia
M14 melanoma = test system: M14 melanoma
MALME-3M melanoma = test system: MALME-3M melanoma
OVCAR-3 ovarian = test system: OVCAR-3 ovarian
CAKI-1 renal = test system: CAKI-1 renal
KM20L2 colon = test system: KM20L2 colon
UO-31 renal = test system: UO-31 renal
HL-60(TB) leukemia = test system: HL-60(TB) leukemia
SK-MEL-2 melanoma = test system: SK-MEL-2 melanoma
A549 NSCLC = test system: A549 NSCLC
ACHN renal = test system: ACHN renal
K-562 leukemia = test system: K-562 leukemia
RXF-631 renal = test system: RXF-631 renal
SK-MEL-28 melanoma = test system: SK-MEL-28 melanoma
SN12C renal = test system: SN12C renal
786-0 renal = test system: 786-0 renal
NCI-H460 lung = test system: NCI-H460 lung
HOP-92 NSCLC = test system: HOP-92 NSCLC
HOP-62 NSCLC = test system: HOP-62 NSCLC
DLD-1 colon = test system: DLD-1 colon
SF-295 CNS = test system: SF-295 CNS
MOLT-4 leukemia = test system: MOLT-4 leukemia
OVCAR-8 ovarian = test system: OVCAR-8 ovarian
HCC-2998 colon = test system: HCC-2998 colon
LOX IMVI melanoma = test system: LOX IMVI melanoma
KM12 colon = test system: KM12 colon
HCT-15 colon = test system: HCT-15 colon
HCT-116 colon = test system: HCT-116 colon
M19-MEL melanoma = test system: M19-MEL melanoma
DMS 114 small cell lung = test system: DMS 114 small cell lung
SK-MEL-5 melanoma = test system: SK-MEL-5 melanoma
IGROV1 ovarian = test system: IGROV1 ovarian
SR leukemia = test system: SR leukemia
XF 498 CNS = test system: XF 498 CNS
A498 renal = test system: A498 renal
UACC-62 melanoma = test system: UACC-62 melanoma
SF-539 CNS = test system: SF-539 CNS

Measured: TGI

O=C(CC1(O)C(=O)Nc2ccc(Br)cc21)c1cccc([N+](=O)[O-])c1 (stereo not drawn)
74.6 µM: HOP-92 NSCLC
67.1 µM: OVCAR-4 ovarian
82.5 µM: NCI-H226 lung
97.2 µM: SNB-75 CNS
83.8 µM: RXF 393 renal
70.1 µM: MOLT-4 leukemia
78.6 µM: UACC-257 melanoma
67.2 µM: NCI-H522 lung
99.6 µM: CCRF-CEM leukemia
57.9 µM: RPMI-8226 leukemia
67.3 µM: HL-60(TB) leukemia
not listed: HCT-116 colon | M19-MEL melanoma | DMS 114 small cell lung | SK-MEL-5 melanoma | IGROV1 ovarian | SR leukemia | XF 498 CNS | A498 renal | UACC-62 melanoma | SF-539 CNS
> 100 µM: all other assays above

C=CC(C)(C)[C@@]12CC3C(=O)N[C@@H](Cc4ccccc4)C(=O)N3[C@@H]1N(C(C)=O)c1ccccc12 (stereo partly drawn)
71.7 µM: MOLT-4 leukemia
97.5 µM: OVCAR-4 ovarian
62.1 µM: HL-60(TB) leukemia
91.2 µM: HOP-92 NSCLC
not listed: SF-268 CNS | NCI-H522 lung | RXF 393 renal | CAKI-1 renal | HCC-2998 colon
> 100 µM: all other assays above
